Laboratory results as given in patent US20150105252A1, “SUBSTITUTED PYRAZOLES AS HERBICIDES” (E I DU PONT DE NEMOURS AND COMPANY, priority 2013, published 2015).

What was measured:
Settings in all cases: scale 0 to 100
bluegrass = test: Test D postemergence; assay type: in vivo, Poa annua
Excerpt: (§1) Seeds of plant species selected from bluegrass (annual bluegrass, Poa annua), blackgrass (Alopecurus myosuroides), canarygrass (littleseed canarygrass, Phalaris minor), chickweed (common chickweed, Stellaria media), galium (catchweed bedstraw, Galium aparine), bromegrass, downy (downy bromegrass, Bromus tectorum), field poppy (Papaver rhoeas), field violet (Viola arvensis), foxtail, green (green foxtail, Setaria viridis), deadnettle (henbit deadnettle, Lamium amplexicaule), ryegrass, Italian (Italian ryegrass, Lolium multiflorum), kochia (Kochia scoparia), lambsquarters (Chenopodium album), oilseed rape (Brassica napus), pigweed (redroot pigweed, Amaranthus retroflexus), chamomile (scentless chamomile, Matricaria inodora), speedwell (bird's-eye speedwell, Veronica persica), barley, spring (spring barley, Hordeum vulgare), wheat, spring (spring wheat, Triticum aestivum), buckwheat, wild (wild buckwheat, Polygonum convolvulus), mustard, wild (wild mustard, Sinapis arvensis), oat, wild (wild oat, Avena fatua), radish, wild (wild radish, Raphanus raphanistrum), windgrass (Apera spica-venti), Russian thistle (Salsola kali), barley, winter (winter barley, Hordeum vulgare), and wheat, winter (winter wheat, Triticum aestivum) were planted into a silt loam soil and treated preemergence with test chemicals formulated in a non-phytotoxic solvent mixture which included a surfactant.
(§2) At the same time, these species were planted in pots containing Redi-Earth® planting medium (Scotts Company, 14111 Scottslawn Road, Marysville, Ohio 43041) comprising spaghnum peat moss, vermiculite, wetting agent and starter nutrients and treated with postemergence applications of the test chemicals formulated in the same manner. Plants ranged in height from 2 to 18 cm (1- to 4-leaf stage). Treated plants and controls were maintained in a controlled growth environment for 14 to 21 days after which time all species were compared to controls and visually evaluated. Plant response ratings, summarized in Table D, are based on a scale of 0 to 100 where 0 is no effect and 100 is complete control. A dash (-) response means no test result.

deadnettle = test: Test D preemergence; assay type: in vivo, Lamium amplexicaule
Excerpt: as §1, §2

field poppy = test: Test D postemergence; assay type: in vivo, Papaver rhoeas
Excerpt: as §1, §2

ryegrass, Italian = test: Test D postemergence; assay type: in vivo, Lolium multiflorum
Excerpt: as §1, §2

chickweed = test: Test D postemergence; assay type: in vivo, Stellaria media
Excerpt: as §1, §2

radish, wild = test: Test D postemergence; assay type: in vivo, Raphanus raphanistrum
Excerpt: as §1, §2

oilseed rape = test: Test D preemergence; assay type: in vivo, Brassica napus
Excerpt: as §1, §2

bromegrass, downy = test: Test D postemergence; assay type: in vivo, Bromus tectorum
Excerpt: as §1, §2

kochia = test: Test D preemergence; assay type: in vivo, Kochia scoparia
Excerpt: as §1, §2

mustard, wild = test: Test D preemergence; assay type: in vivo, Sinapis arvensis
Excerpt: as §1, §2

| Structure (SMILES) | Bluegrass plant response rating (bluegrass; Postemergence, 31 g ai/ha) | Bluegrass plant response rating (bluegrass; Postemergence, 125 g ai/ha) | Bluegrass plant response rating (bluegrass; Postemergence, 250 g ai/ha) | Bluegrass plant response rating (bluegrass; postemergence, 62 g ai/ha) | Plant response rating, Deadnettle (deadnettle; 31 g ai/ha) | Plant response rating, Deadnettle (deadnettle; 62 g ai/ha) | Plant response rating, Deadnettle (deadnettle; 125 g ai/ha) | Plant response rating, Deadnettle (deadnettle; 250 g ai/ha) | Field Poppy plant response rating (field poppy; Postemergence, 31 g ai/ha) | Field Poppy plant response rating (field poppy; Postemergence, 125 g ai/ha) | Field Poppy plant response rating (field poppy; Postemergence, 250 g ai/ha) | Field Poppy plant response rating (field poppy; postemergence, 62 g ai/ha) | Ryegrass, Italian plant response rating (ryegrass, Italian; Postemergence, 31 g ai/ha) | Ryegrass, Italian plant response rating (ryegrass, Italian; Postemergence, 125 g ai/ha) | Ryegrass, Italian plant response rating (ryegrass, Italian; Postemergence, 250 g ai/ha) | Ryegrass, Italian plant response rating (ryegrass, Italian; postemergence, 62 g ai/ha) | Chickweed plant response rating (chickweed; Postemergence, 31 g ai/ha) | Chickweed plant response rating (chickweed; Postemergence, 125 g ai/ha) | Chickweed plant response rating (chickweed; Postemergence, 250 g ai/ha) | Chickweed plant response rating (chickweed; postemergence, 62 g ai/ha) | further results |
| --- | --- | --- | --- | --- | --- | --- | --- | --- | --- | --- | --- | --- | --- | --- | --- | --- | --- | --- | --- | --- | --- |
| CCc1cc(C(=O)NC(C)C)nn1Cc1ccnc(C(F)(F)F)c1 [Compound 103] | 10 | 20 | 30 | 25 | 5 | 15 | 30 | 30 | 40 | 60 | 70 | 55 | 5 | 5 | 35 | 5 | 20 | 40 | 70 | 25 | Radish, Wild plant response rating (radish, wild; Postemergence, 31 g ai/ha): 25; Radish, Wild plant response rating (radish, wild; Postemergence, 125 g ai/ha): 50; Radish, Wild plant response rating (radish, wild; Postemergence, 250 g ai/ha): 60; Radish, Wild plant response rating (radish, wild; postemergence, 62 g ai/ha): 35; Plant response rating, Oilseed Rape (oilseed rape; 31 g ai/ha): 25; Plant response rating, Oilseed Rape (oilseed rape; 62 g ai/ha): 30; Plant response rating, Oilseed Rape (oilseed rape; 125 g ai/ha): 35; Plant response rating, Oilseed Rape (oilseed rape; 250 g ai/ha): 95; Bromegrass, Downy plant response rating (bromegrass, downy; Postemergence, 31 g ai/ha): 5; Bromegrass, Downy plant response rating (bromegrass, downy; Postemergence, 125 g ai/ha): 15; Bromegrass, Downy plant response rating (bromegrass, downy; Postemergence, 250 g ai/ha): 15; Bromegrass, Downy plant response rating (bromegrass, downy; postemergence, 62 g ai/ha): 10; Plant response rating, Kochia (kochia; 31 g ai/ha): 10; Plant response rating, Kochia (kochia; 62 g ai/ha): 65; Plant response rating, Kochia (kochia; 125 g ai/ha): 85; Plant response rating, Kochia (kochia; 250 g ai/ha): 100; Plant response rating, Mustard, Wild (mustard, wild; 31 g ai/ha): 55; Plant response rating, Mustard, Wild (mustard, wild; 62 g ai/ha): 60; Plant response rating, Mustard, Wild (mustard, wild; 125 g ai/ha): 75; Plant response rating, Mustard, Wild (mustard, wild; 250 g ai/ha): 100 |
| CCCc1cc(C(=O)NCC(F)(F)F)nn1Cc1cc(C(F)(F)F)nn1C [Compound 138] | 15 | 30 | 60 | 15 | 85 | 100 | 100 | 100 | 55 | 65 | 75 | 55 | 15 | 15 | 55 | 15 | 70 | 80 | 75 | 70 | Radish, Wild plant response rating (radish, wild; Postemergence, 31 g ai/ha): 80; Radish, Wild plant response rating (radish, wild; Postemergence, 125 g ai/ha): 100; Radish, Wild plant response rating (radish, wild; Postemergence, 250 g ai/ha): 95; Radish, Wild plant response rating (radish, wild; postemergence, 62 g ai/ha): 80; Plant response rating, Oilseed Rape (oilseed rape; 62 g ai/ha): 40; Plant response rating, Oilseed Rape (oilseed rape; 125 g ai/ha): 100; Plant response rating, Oilseed Rape (oilseed rape; 250 g ai/ha): 100; Bromegrass, Downy plant response rating (bromegrass, downy; Postemergence, 31 g ai/ha): 10; Bromegrass, Downy plant response rating (bromegrass, downy; Postemergence, 125 g ai/ha): 30; Bromegrass, Downy plant response rating (bromegrass, downy; Postemergence, 250 g ai/ha): 20; Bromegrass, Downy plant response rating (bromegrass, downy; postemergence, 62 g ai/ha): 10; Plant response rating, Kochia (kochia; 62 g ai/ha): 95; Plant response rating, Kochia (kochia; 125 g ai/ha): 100; Plant response rating, Kochia (kochia; 250 g ai/ha): 100; Plant response rating, Mustard, Wild (mustard, wild; 62 g ai/ha): 100; Plant response rating, Mustard, Wild (mustard, wild; 125 g ai/ha): 100; Plant response rating, Mustard, Wild (mustard, wild; 250 g ai/ha): 100 |
| CCOc1cc(C(=O)NC2CC2)nn1Cc1ccnc(C(F)(F)F)c1 [Compound 189] | 15 | 15 | 30 | 15 | 90 | 100 | 100 | 100 | 55 | 75 | 75 | 55 | 10 | 20 | 30 | 10 | 75 | 70 | 85 | 75 | Radish, Wild plant response rating (radish, wild; Postemergence, 31 g ai/ha): 60; Radish, Wild plant response rating (radish, wild; Postemergence, 125 g ai/ha): 65; Radish, Wild plant response rating (radish, wild; Postemergence, 250 g ai/ha): 85; Radish, Wild plant response rating (radish, wild; postemergence, 62 g ai/ha): 60; Plant response rating, Oilseed Rape (oilseed rape; 62 g ai/ha): 55; Plant response rating, Oilseed Rape (oilseed rape; 125 g ai/ha): 80; Plant response rating, Oilseed Rape (oilseed rape; 250 g ai/ha): 100; Bromegrass, Downy plant response rating (bromegrass, downy; Postemergence, 31 g ai/ha): 15; Bromegrass, Downy plant response rating (bromegrass, downy; Postemergence, 125 g ai/ha): 15; Bromegrass, Downy plant response rating (bromegrass, downy; Postemergence, 250 g ai/ha): 20; Bromegrass, Downy plant response rating (bromegrass, downy; postemergence, 62 g ai/ha): 15; Plant response rating, Kochia (kochia; 62 g ai/ha): 100; Plant response rating, Kochia (kochia; 125 g ai/ha): 100; Plant response rating, Kochia (kochia; 250 g ai/ha): 100; Plant response rating, Mustard, Wild (mustard, wild; 62 g ai/ha): 100; Plant response rating, Mustard, Wild (mustard, wild; 125 g ai/ha): 100; Plant response rating, Mustard, Wild (mustard, wild; 250 g ai/ha): 100 |
